In ChEMBL document CHEMBL4819067, “Discovery of novel pyrimidine molecules containing boronic acid as VCP/p97 Inhibitors” (Bioorg Med Chem, 2021) one finds IC50 data, which are given here for 22 compounds.

One may read the IC50 as the concentration that inhibits the measured activity by half.

The structures appear in SMILES notation. Where only a bound is given, the exact number is not on record here.

One assay deals with A549. The assay is described as follows: Cytotoxicity against human A549 cells assessed as reduction in cell viability incubated for 72 hrs by CCK8 assay. The assay is classed as functional, cell-based. To be noted: A549, 72 h. On the technique in general: Tetrazolium assays rely on reduction of a dye to a coloured formazan, in cell work by metabolically active cells.
Another assay has as its system RPMI-8226. The assay is described as follows: Cytotoxicity against human RPMI-8226 cells assessed as reduction in cell viability incubated for 72 hrs by CCK8 assay. The assay is classed as functional, cell-based.
The target of assay [1] is Transitional endoplasmic reticulum ATPase (Homo sapiens, UniProt P55072). The experiment in a line: Inhibition of p97 (unknown origin) incubated for 60 mins by ADP-Glo assay. Background: ADP-Glo turns the ADP formed in a reaction into a luminescent signal.
[2] abbreviates: Homo sapiens, RPMI-8226, 72 h, read-out: IC50.

Sequence of Transitional endoplasmic reticulum ATPase (P55072 whole entry): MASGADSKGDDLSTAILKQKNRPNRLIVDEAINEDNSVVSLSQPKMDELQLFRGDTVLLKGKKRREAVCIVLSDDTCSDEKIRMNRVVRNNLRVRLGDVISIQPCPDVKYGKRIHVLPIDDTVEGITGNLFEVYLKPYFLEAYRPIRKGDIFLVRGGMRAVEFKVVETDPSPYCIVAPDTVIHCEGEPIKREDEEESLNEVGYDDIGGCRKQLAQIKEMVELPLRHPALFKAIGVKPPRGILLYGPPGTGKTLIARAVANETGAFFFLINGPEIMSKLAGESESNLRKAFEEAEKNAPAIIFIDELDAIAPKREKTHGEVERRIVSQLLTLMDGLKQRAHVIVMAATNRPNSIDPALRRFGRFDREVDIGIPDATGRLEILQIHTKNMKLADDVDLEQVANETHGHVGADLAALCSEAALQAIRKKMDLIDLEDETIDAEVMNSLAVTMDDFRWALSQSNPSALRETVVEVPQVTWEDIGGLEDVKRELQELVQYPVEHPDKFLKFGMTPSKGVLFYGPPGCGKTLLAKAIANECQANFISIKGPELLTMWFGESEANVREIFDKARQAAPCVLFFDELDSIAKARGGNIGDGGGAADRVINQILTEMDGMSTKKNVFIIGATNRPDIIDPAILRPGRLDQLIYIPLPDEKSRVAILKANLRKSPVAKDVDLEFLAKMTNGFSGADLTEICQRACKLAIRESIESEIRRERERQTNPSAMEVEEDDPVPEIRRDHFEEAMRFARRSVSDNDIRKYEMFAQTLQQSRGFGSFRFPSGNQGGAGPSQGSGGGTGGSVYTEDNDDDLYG

Turning to `Cc1cc2c(NC(=O)c3ccco3)cccc2n1-c1nc2c(c(NCc3cccc(B(O)O)c3)n1)CCCC2`, the values for the IC50 (in the assay with A549; with RPMI-8226 (setting [2]); in assay [1]) were 3.12 µM, 2.33 µM and 0.0934 µM, respectively.

`Cc1cc2c(NC(=O)CCl)cccc2n1-c1nc2c(c(NCc3cccc(B(O)O)c3)n1)CCC2` registered a half-maximal inhibitory concentration (IC50) in assay [1] of 0.258 µM.

With `Cc1cc2c(NS(C)(=O)=O)cccc2n1-c1nc2c(c(NCc3cccc(B(O)O)c3)n1)CCC2`, the figures for the IC50 (in the assay with A549; in the assay on RPMI-8226 (setting [2]); in assay [1]) were 2.8 µM, 0.86 µM and 0.0547 µM, respectively.

As to `Cc1cc2c(NC(=O)c3cscn3)cccc2n1-c1nc2c(c(NCc3cccc(B(O)O)c3)n1)CCC2`, in assay [1], the IC50 is 0.468 µM.

In turn, `Cc1cc2c(NC(=O)c3ccno3)cccc2n1-c1nc2c(c(NCc3cccc(B(O)O)c3)n1)CCC2` displayed an IC50 in assay [1] of 0.241 µM.

On to `Cc1cc2c(NC(=O)CC#N)cccc2n1-c1nc2c(c(NCc3cccc(B(O)O)c3)n1)CCC2`, for which the IC50 in assay [1] came to 0.692 µM.

Regarding `C=CC(=O)Nc1cccc2c1cc(C)n2-c1nc2c(c(NCc3cccc(B(O)O)c3)n1)CCC2`, the concentration for half-maximal inhibition (IC50) is 4.75 µM in the assay with A549, 2.94 µM with RPMI-8226 (setting [2]) and 0.192 µM in assay [1].

For `COc1cnc(-n2c(C)cc3c(NC(=O)c4ccco4)cccc32)nc1NCc1cccc(B(O)O)c1`, the IC50 in the assay with A549 is 3.77 µM; in the assay on RPMI-8226 (setting [2]), 1.9 µM; in assay [1], 0.0974 µM.

Regarding `C#CC(=O)Nc1cccc2c1cc(C)n2-c1nc2c(c(NCc3cccc(B(O)O)c3)n1)CCC2`, the results for the IC50 (in the assay on A549; in the assay with RPMI-8226 (setting [2]); in assay [1]) were 2.1 µM, 1.27 µM and 0.0914 µM, respectively.

On to `Cc1cc2c(NS(C)(=O)=O)cccc2n1-c1nc2c(c(NCc3cccc(B(O)O)c3)n1)CCCC2`, for which the IC50 in the assay on A549 turned out to be 2.42 µM; with RPMI-8226 (setting [2]) it was 1.55 µM; in assay [1], 0.0456 µM.

Turning to `CC#CC(=O)Nc1cccc2c1cc(C)n2-c1ncc(OC)c(NCc2cccc(B(O)O)c2)n1`, the concentration for half-maximal inhibition (IC50) in the assay with A549 turned out to be 6.1 µM; in the assay with RPMI-8226 (setting [2]), 2.4 µM; in assay [1], 0.032 µM.

Regarding `Cc1cc2c(NC(=O)c3ccco3)cccc2n1-c1nc2c(c(NCc3cccc(B(O)O)c3)n1)COCC2`, the IC50 was found to be 4.38 µM with A549, 2.7 µM in the assay on RPMI-8226 (setting [2]) and 0.091 µM in assay [1].

As for `CC#CC(=O)Nc1cccc2c1cc(C)n2-c1nc(NCc2cccc(B(O)O)c2)c2ccccc2n1`, the values for the IC50 (with A549; in the assay with RPMI-8226 (setting [2]); in assay [1]) were 5.6 µM, 2.2 µM and 0.114 µM, respectively.

For the compound `CC#CC(=O)Nc1cccc2c1cc(C)n2-c1nc2c(c(NCc3cccc(B(O)O)c3)n1)CCC2`, the IC50 in the assay on A549 was found to be 3.15 µM; in the assay on RPMI-8226 (setting [2]) it was 1.73 µM; in assay [1] it was 0.0586 µM.

`Cc1cc2c(NC(=O)CCCl)cccc2n1-c1nc2c(c(NCc3cccc(B(O)O)c3)n1)CCC2`: in assay [1], it took 0.436 µM to reach half-maximal inhibition (IC50).

Regarding `Cc1cc2c(NS(C)(=O)=O)cccc2n1-c1nc(NCc2cccc(B(O)O)c2)c2ccccc2n1`, the IC50 with A549 was determined as 5.6 µM; in the assay on RPMI-8226 (setting [2]), 3.6 µM; in assay [1], 0.0889 µM.

As for `Cc1cc2c(NC(=O)c3ccco3)cccc2n1-c1nc2c(c(NCc3cccc(B(O)O)c3)n1)CCC2`, the IC50 in the assay with A549 was 3.55 µM; in the assay with RPMI-8226 (setting [2]), 2.3 µM; in assay [1] it was 0.0573 µM.

For the compound `CC#CC(=O)Nc1cccc2c1cc(C)n2-c1nc2c(c(NCc3cccc(B(O)O)c3)n1)CCCC2`, the IC50 with A549 came to 2.15 µM; in the assay with RPMI-8226 (setting [2]), 1.5 µM; in assay [1], 0.0898 µM.

As for `CC#CC(=O)Nc1cccc2c1cc(C)n2-c1nc2c(c(NCc3cccc(B(O)O)c3)n1)COCC2`, the IC50 in the assay on A549 came out at 4.1 µM; with RPMI-8226 (setting [2]), 2.9 µM; in assay [1], 0.117 µM.

For `Cc1cc2c(NS(C)(=O)=O)cccc2n1-c1nc2c(c(NCc3cccc(B(O)O)c3)n1)COCC2`, the IC50 with A549 is > 10 µM; in the assay on RPMI-8226 (setting [2]), 5.1 µM; in assay [1], 0.117 µM.

With `Cc1cc2c(NC(=O)c3ccco3)cccc2n1-c1nc(NCc2cccc(B(O)O)c2)c2ccccc2n1`, the IC50 came to 5.8 µM in the assay with A549, 3.2 µM in the assay with RPMI-8226 (setting [2]) and 0.162 µM in assay [1].

Regarding `C/C=C/C(=O)Nc1cccc2c1cc(C)n2-c1nc2c(c(NCc3cccc(B(O)O)c3)n1)CCC2`, the values for the IC50 (in the assay with A549; in the assay with RPMI-8226 (rpmi-8226); in assay [1]) were 4.45 µM, “Not Active” and 0.166 µM, respectively.
